The source of these data is patent US20250019387A1 (Frontier Medicines Corporation, priority 0001, published 2025).

SMILES strings stand for the structures.

Chain of KRAS G12C and cRAF (Ras-binding domain) interaction (P01116 other isoform, or with tags, fused parts or gaps G12C/C51S/C80L/C118S): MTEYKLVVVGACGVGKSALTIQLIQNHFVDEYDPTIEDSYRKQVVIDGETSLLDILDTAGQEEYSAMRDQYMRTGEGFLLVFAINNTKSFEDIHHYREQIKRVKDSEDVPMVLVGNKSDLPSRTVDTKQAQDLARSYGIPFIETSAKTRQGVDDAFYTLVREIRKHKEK

The assay deals with KRAS G12C and cRAF (Ras-binding domain) interaction (Homo sapiens (Human), UniProt P01116, C118S/C51S/C80L/G12C). The assay can be described thus: Inhibition of KRAS G12C and cRAF binding (AlphaScreen). The conditions noted are these: GMPPNP-loaded KRAS G12C, 19-20 hours incubation with compound; read-out: IC50 (Inhibition of KRAS G12C and cRAF Binding). Put shortly:
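IC50 values come from 4-parameter nonlinear regression of AlphaScreen signal (680 nm excitation, 570 nm emission). Compound plates sat 19-20 h at room temperature before RBD and donor/acceptor beads were added in Hepes pH 7.4 buffer with 150 mM NaCl, 5 mM MgCl2, 2% DMSO for 60-90 min; biotin-AviTag-GST replaced RBD to flag assay-technology interferers.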
On to `CN1CC(C)(C#CC(=O)N2CC[C@@H](N(C)c3nc(OC[C@@]45CCCN4C[C@H](F)C5)nc4c(F)c(-c5cccc6cccc(Cl)c56)ncc34)C2)C1` [Example 242, 1-((R)-3-((7-(8-chloronaphthalen-1-yl)-8-fluoro-2-(((2R,7aS)-2-fluorohexahydro-1H-pyrrolizin-7a-yl)methoxy)pyrido[4,3-d]pyrimidin-4-yl)(methyl)amino)pyrrolidin-1-yl)-3-(1,3-dimethylazetidin-3-yl)prop-2-yn-1-one], for which the half-maximal inhibitory concentration (IC50) was less than 0.01 µM.

With `Cc1cc(/C=C/C(=O)N2CCN(c3nc(OC[C@@]45CCCN4C[C@H](F)C5)nc4c(F)c(-c5cccc6cccc(Cl)c56)ncc34)CC2)nc(C)n1` [Example 243, (E)-1-(4-(7-(8-chloronaphthalen-1-yl)-8-fluoro-2-(((2R,7aS)-2-fluorotetrahydro-1H-pyrrolizin-7a(5H)-yl)methoxy)pyrido[4,3-d]pyrimidin-4-yl)piperazin-1-yl)-3-(2,6-dimethylpyrimidin-4-yl)prop-2-en-1-one], the IC50 is 0.1 to 0.5 µM.

As for `Cc1ncc(F)c(/C=C/C(=O)N2CC[C@@H](N(C)c3nc(OCC45CCCN4CCC5)nc4c(F)c(-c5cccc6ccc(F)c(Cl)c56)ncc34)C2)n1` [Example 244, (R,E)-1-(3-((7-(8-chloro-7-fluoronaphthalen-1-yl)-8-fluoro-2-((tetrahydro-1H-pyrrolizin-7a(5H)-yl)methoxy)pyrido[4,3-d]pyrimidin-4-yl)(methyl)amino)pyrrolidin-1-yl)-3-(5-fluoro-2-methylpyrimidin-4-yl)prop-2-en-1-one], the 50% inhibitory concentration (IC50) is 0.1 to 0.5 µM.

For the compound `C=CC(=O)N1CC(CN(C)c2nc(OC[C@@]34CCCN3C[C@H](F)C4)nc3c(F)c(-c4cccc5ccc(F)c(F)c45)ncc23)C1` [Example 246, 1-(3-(((7-(7,8-difluoronaphthalen-1-yl)-8-fluoro-2-(((2R,7aS)-2-fluorotetrahydro-1H-pyrrolizin-7a(5H)-yl)methoxy)pyrido[4,3-d]pyrimidin-4-yl)(methyl)amino)methyl)azetidin-1-yl)prop-2-en-1-one], the IC50 fell in the range of 0.01 to 0.1 µM.

Regarding `Cc1ncc(F)c(/C=C/C(=O)N2CC[C@@H](N(C)c3nc(OCC45CCCN4CCC5)nc4c(F)c(-c5cccc6cccc(Cl)c56)ncc34)C2)n1` [Example 249, (R,E)-1-(3-((7-(8-chloronaphthalen-1-yl)-8-fluoro-2-((tetrahydro-1H-pyrrolizin-7a(5H)-yl)methoxy)pyrido[4,3-d]pyrimidin-4-yl)(methyl)amino)pyrrolidin-1-yl)-3-(5-fluoro-2-methylpyrimidin-4-yl)prop-2-en-1-one], the 50% inhibitory concentration (IC50) was 0.01 to 0.1 µM.

With `C=CC(=O)N1CC[C@@H](N(CC2CC2)c2nc(OC[C@@]34CCCN3C[C@H](F)C4)nc3c(F)c(-c4cccc5cccc(Cl)c45)ncc23)C1` [Example 250, 1-((R)-3-((7-(8-chloronaphthalen-1-yl)-8-fluoro-2-(((2R,7aS)-2-fluorohexahydro-1H-pyrrolizin-7a-yl)methoxy)pyrido[4,3-d]pyrimidin-4-yl)(cyclopropylmethyl)amino)pyrrolidin-1-yl)prop-2-en-1-one], the IC50 is 0.1 to 0.5 µM.

As for `CN(c1nc(OC[C@@]23CCCN2C[C@H](F)C3)nc2c(F)c(-c3cccc4ccc(F)c(Cl)c34)ncc12)[C@@H]1CCN(C(=O)/C=C/C2CCCO2)C1` (stereo partly drawn) [Example 252, (E)-1-((R)-3-((7-(8-chloro-7-fluoronaphthalen-1-yl)-8-fluoro-2-(((2R,7aS)-2-fluorotetrahydro-1H-pyrrolizin-7a(5H)-yl)methoxy)pyrido[4,3-d]pyrimidin-4-yl)(methyl)amino)pyrrolidin-1-yl)-3-(tetrahydrofuran-2-yl)prop-2-en-1-one], the half-maximal inhibitory concentration (IC50) lay within 0.1 to 0.5 µM.

Take `C=CC(=O)N1CC[C@@H](N(C)c2nc(OCC34CCCN3CCC4)nc3c(F)c(-c4cccc5ccc(F)c(CC)c45)ncc23)C1` [Example 253, (R)-1-(3-((7-(8-ethyl-7-fluoronaphthalen-1-yl)-8-fluoro-2-((tetrahydro-1H-pyrrolizin-7a(5H)-yl)methoxy)pyrido[4,3-d]pyrimidin-4-yl)(methyl)amino)pyrrolidin-1-yl)prop-2-en-1-one]: the IC50 fell in the range of 0.1 to 0.5 µM.

Regarding `C=CC(=O)N1CC(CN(C)c2nc(OC[C@@]34CCCN3C[C@H](F)C4)nc3c(F)c(-c4cccc5ccc(F)c(CC)c45)ncc23)C1` [Example 254, 1-(3-(((7-(8-ethyl-7-fluoronaphthalen-1-yl)-8-fluoro-2-(((2R,7aS)-2-fluorohexahydro-1H-pyrrolizin-7a-yl)methoxy)pyrido[4,3-d]pyrimidin-4-yl)(methyl)amino)methyl)azetidin-1-yl)prop-2-en-1-one], the IC50 is 0.01 to 0.1 µM.

Take `Cc1nccc(/C=C/C(=O)N2CCC[C@H](N(C)c3nc(OC[C@@]45CCCN4C[C@H](F)C5)nc4c(F)c(-c5cccc6cccc(Cl)c56)ncc34)C2)n1` [Example 260, (E)-1-((S)-3-((7-(8-chloronaphthalen-1-yl)-8-fluoro-2-(((2R,7aS)-2-fluorotetrahydro-1H-pyrrolizin-7a(5H)-yl)methoxy)pyrido[4,3-d]pyrimidin-4-yl)(methyl)amino)piperidin-1-yl)-3-(2-methylpyrimidin-4-yl)prop-2-en-1-one]: the IC50 lay within 0.1 to 0.5 µM.

As to `Cc1nccc(/C=C/C(=O)N2CCC(Nc3nc(OC[C@@]45CCCN4C[C@H](F)C5)nc4c(F)c(-c5cccc6cccc(Cl)c56)ncc34)CC2)n1` [Example 261, (E)-1-(4-((7-(8-chloronaphthalen-1-yl)-8-fluoro-2-(((2R,7aS)-2-fluorotetrahydro-1H-pyrrolizin-7a(5H)-yl)methoxy)pyrido[4,3-d]pyrimidin-4-yl)amino)piperidin-1-yl)-3-(2-methylpyrimidin-4-yl)prop-2-en-1-one], the half-inhibitory concentration (IC50) is more than 0.5 µM.

Turning to `Cc1nccc(/C=C/C(=O)N2CCC[C@@H](Nc3nc(OC[C@@]45CCCN4C[C@H](F)C5)nc4c(F)c(-c5cccc6cccc(Cl)c56)ncc34)C2)n1` [Example 262, (E)-1-((R)-3-((7-(8-chloronaphthalen-1-yl)-8-fluoro-2-(((2R,7aS)-2-fluorotetrahydro-1H-pyrrolizin-7a(5H)-yl)methoxy)pyrido[4,3-d]pyrimidin-4-yl)amino)piperidin-1-yl)-3-(2-methylpyrimidin-4-yl)prop-2-en-1-one], the IC50 lay within 0.1 to 0.5 µM.

`C=CC(=O)N1CC[C@@H](N(C)c2nc(OC[C@@]34CCCN3C[C@H](F)C4)nc3c(F)c(-c4cccc5cc(Cl)cc(Cl)c45)ncc23)C1` [Example 263, 1-((R)-3-((7-(6,8-dichloronaphthalen-1-yl)-8-fluoro-2-(((2R,7aS)-2-fluorotetrahydro-1H-pyrrolizin-7a(5H)-yl)methoxy)pyrido[4,3-d]pyrimidin-4-yl)(methyl)amino)pyrrolidin-1-yl)prop-2-en-1-one]: the IC50 is more than 0.5 µM.

Take `C=CC(=O)N1CC[C@@H](N(CCC#N)c2nc(OC[C@@]34CCCN3C[C@H](F)C4)nc3c(F)c(-c4cccc5cccc(Cl)c45)ncc23)C1` [Example 264, 3-(((R)-1-acryloylpyrrolidin-3-yl)(7-(8-chloronaphthalen-1-yl)-8-fluoro-2-(((2R,7aS)-2-fluorohexahydro-1H-pyrrolizin-7a-yl)methoxy)pyrido[4,3-d]pyrimidin-4-yl)amino)propanenitrile]: the IC50 lay within 0.1 to 0.5 µM.

In the case of `C=CC(=O)N1CC[C@@H](N(C)c2nc(OCC34CCCN3CCC4)nc3c(F)c(-c4cccc5ccc(F)c(F)c45)ncc23)C1` [Example 265, (R)-1-(3-((7-(7,8-difluoronaphthalen-1-yl)-8-fluoro-2-((tetrahydro-1H-pyrrolizin-7a(5H)-yl)methoxy)pyrido[4,3-d]pyrimidin-4-yl)(methyl)amino)pyrrolidin-1-yl)prop-2-en-1-one], the IC50 was in the range of 0.01 to 0.1 µM.

`C=CC(=O)N1CC[C@@H](N(C)c2nc(OC[C@@]34CCCN3C[C@H](F)C4)nc3c(F)c(-c4cccc5cc(F)c(F)cc45)ncc23)C1` [Example 266, 1-((R)-3-((7-(6,7-difluoronaphthalen-1-yl)-8-fluoro-2-(((2R,7aS)-2-fluorotetrahydro-1H-pyrrolizin-7a(5H)-yl)methoxy)pyrido[4,3-d]pyrimidin-4-yl)(methyl)amino)pyrrolidin-1-yl)prop-2-en-1-one]: the IC50 was in the range of 0.1 to 0.5 µM.

On to `CN(c1nc(OC[C@@]23CCCN2C[C@H](F)C3)nc2c(F)c(-c3cccc4cccc(Cl)c34)ncc12)[C@@H]1CCN(C(=O)C=C2CCC2)C1` [Example 267, 1-((R)-3-((7-(8-chloronaphthalen-1-yl)-8-fluoro-2-(((2R,7aS)-2-fluorotetrahydro-1H-pyrrolizin-7a(5H)-yl)methoxy)pyrido[4,3-d]pyrimidin-4-yl)(methyl)amino)pyrrolidin-1-yl)-2-cyclobutylideneethan-1-one], for which the IC50 is 0.1 to 0.5 µM.

Turning to `C=CC(=O)N1CC[C@@H](N(C)c2nc(OC[C@@]34CCCN3C[C@H](F)C4)nc3c(F)c(-c4cccc5cc(F)cc(F)c45)ncc23)C1` [Example 268, 1-((R)-3-((7-(6,8-difluoronaphthalen-1-yl)-8-fluoro-2-(((2R,7aS)-2-fluorohexahydro-1H-pyrrolizin-7a-yl)methoxy)pyrido[4,3-d]pyrimidin-4-yl)(methyl)amino)pyrrolidin-1-yl)prop-2-en-1-one], the IC50 lay in the range of 0.1 to 0.5 µM.

As to `C=CC(=O)N1CC[C@@H](N(C)c2nc(OCC34CCCN3CCC4)nc3c(F)c(-c4cccc5c(F)cc(F)cc45)ncc23)C1` [Example 269, (R)-1-(3-((7-(5,7-difluoronaphthalen-1-yl)-8-fluoro-2-((hexahydro-1H-pyrrolizin-7a-yl)methoxy)pyrido[4,3-d]pyrimidin-4-yl)(methyl)amino)pyrrolidin-1-yl)prop-2-en-1-one], the half-inhibitory concentration (IC50) fell in the range of 0.1 to 0.5 µM.
